Test results from publication PMC5142287, “Weight control interventions improve therapeutic efficacy of dacarbazine in melanoma by reversing obesity-induced drug resistance” (Cancer & Metabolism, 2016).

Legend:
[1] = Obesity-associated factors in B16F10-isografted HFD C57BL/6J mice (body weight, blood glucose, serum lipids, ELISA); format: in vivo; details: end of experiment, mean ± SD
Source text: C57BL/6J mice were procured from Experimental Animal Facility (EAF) at National Centre for Cell Science (NCCS), Pune, India. High fat diet (24% fat) was purchased from Provimi Animal Nutrition Pvt. Ltd., Bangalore, India, and normal diet (5% fat) was obtained from Amrut Laboratory, Pune, India. The compositions of diets are provided in supplementary data (Additional file 1: Table S1). Diet-induced obesity was developed in the mice by feeding them with high fat diet as described previously. Male C57BL/6J mice (6–8 weeks old) were divided into normal diet (ND) and high fat diet (HFD) group. ND group was fed with normal diet while HFD group was fed with high fat diet supplemented with ground nut and dried coconut for 6 months. Body weight and serum chemistry profile were measured monthly to verify obesity-associated changes. Water and food were provided ad libitum to all the mice. All animal experiments were carried out as per the requirement and guidelines of the Committee for the Purpose of Control and Supervision of Experiments on Animals (CPCSEA), Government of India, and after obtaining permission of the Institutional Animal Ethics Committee (IAEC).
(§1) Blood glucose levels and serum lipids were estimated as described previously. Insulin, leptin, and adiponectin levels in the serum were estimated by mouse-specific respective ELISA kits as described. Resistin, IL-6, and TNF-α levels in the serum were detected by indirect ELISA as described previously.
(§2) To study the impact of diet-induced obesity on the outcome of DTIC therapy in melanoma, we treated B16F10 melanoma isografted obese mice with DTIC purchased from Sigma, USA (80 mg/kg intraperitoneally for five consecutive days as described previously). In addition, to look into the impact of weight loss interventions on the outcome of DTIC therapy in obese mice, mice were administered with orlistat (an antiobesity drug known to inhibit gastrointestinal lipases) and/or shifted from high fat to normal diet followed by DTIC treatment. The detailed experimental plan is illustrated in Fig. 1a. Briefly, obese mice were administered orally with orlistat (10 mg/kg on every alternate day) purchased from Enzo Life Sciences, NY, USA, and/or shifted from high fat diet to normal diet. HFD C57BL/6J mice treated with vehicle or orlistat were termed as HFD-HFD Ctrl and HFD-HFD Orli (N = 11 per each group), respectively, whereas HFD C57BL/6J mice shifted to normal diet and treated with vehicle or orlistat were grouped as HFD-ND Ctrl and HFD-ND Orli (N = 11 per each group), respectively. After 15 days, these mice were injected subcutaneously (s.c.) with B16F10 cells (2 × 10^5) in 100 μl of PBS and monitored daily for the presence of palpable tumors and dimensions were recorded on alternate days. […] Tumor volume was calculated using the formula 0.52 × length × width^2 and was followed up throughout the study.

[2] = Obesity-associated factors in B16F10-isografted ND C57BL/6J mice; format: in vivo; details: end of experiment
Source text: as §1

[3] = system: B16F10 melanoma; test: B16F10 melanoma isograft in HFD (obese) C57BL/6J mice: tumor growth and survival; format: in vivo; details: HFD mice, vs untreated counterparts
Procedure: as §2

[4] = system: 3T3-L1 adipocytes; set-up: method as in PMID 10840932; details: cited from earlier work
[5] = system: B16F10 melanoma; test: B16F10 melanoma isograft in ND C57BL/6J mice: tumor growth and survival
Procedure: Melanoma cells were injected and orlistat treatment was continued. Following tumor formation, all groups of mice were treated with vehicle (acidified water) or DTIC, and tumor volume was followed up in these mice throughout the study as mentioned above. […] At the end of the experiment, mice were sacrificed, tumors were excised, and the samples were immediately preserved at −80 °C until further use. Five mice from each group were followed up for survival studies as mentioned above.

SMILES: CCCCCCCCCCC[C@@H](C[C@@H]1OC(=O)[C@H]1CCCCCC)OC(=O)[C@H](CC(C)C)NC=O [orlistat]
- Body weight ([1]; HFD-HFD (continued on HFD), orlistat 10 mg/kg oral alternate days, DTIC 80 mg/kg i.p. 5 days): 26.16 ± 0.71 (p < 0.0001) g
- Blood glucose ([1]; HFD-HFD): 146.3 ± 5.99 (p < 0.0001) mg/dl
- Serum IL-6 ([1]; HFD-HFD): 35.45 ± 2.88 (p < 0.0001) pg/ml
- Serum LDLc ([1]; HFD-HFD): 66.69 ± 3.42 (p < 0.0001) mg/dl
- Serum TG ([1]; HFD-HFD): 66.03 ± 3.39 (p < 0.0001) mg/dl
- Serum TNF-α ([1]; HFD-HFD): 13.78 ± 1.07 (p < 0.0001) pg/ml
- Serum adiponectin ([1]; HFD-HFD): 8204 ± 593 (p < 0.0001) ng/ml
- Serum cholesterol ([1]; HFD-HFD): 95.75 ± 4.91 (p < 0.0001) mg/dl
- Serum free fatty acids ([1]; HFD-HFD): 1.74 ± 0.09 (p < 0.0001) mM/l
- Serum insulin ([1]; HFD-HFD): 0.269 ± 0.01 (p < 0.0001) μg/l
- Serum leptin ([1]; HFD-HFD): 33.74 ± 2.47 (p < 0.0001) ng/ml
- Serum resistin ([1]; HFD-HFD): 1.66 ± 0.08 (p < 0.0001) ng/ml
- Body weight ([1]; HFD-ND (shifted from HFD to normal diet)): 23.1 ± 1.02 (p < 0.0001) g
- Blood glucose ([1]; HFD-ND): 128.83 ± 6.24 (p < 0.0001) mg/dl
- Serum IL-6 ([1]; HFD-ND): 29.25 ± 2.12 (p < 0.0001) pg/ml
- Serum LDLc ([1]; HFD-ND): 63.31 ± 3.13 (p < 0.0001) mg/dl
- Serum TG ([1]; HFD-ND): 60.53 ± 3.15 (p < 0.0001) mg/dl
- Serum TNF-α ([1]; HFD-ND): 11.48 ± 1.12 (p < 0.0001) pg/ml
- Serum adiponectin ([1]; HFD-ND): 9108 ± 550 (p < 0.0001) ng/ml
- Serum cholesterol ([1]; HFD-ND): 88.64 ± 5.17 (p < 0.0001) mg/dl
- Serum free fatty acids ([1]; HFD-ND): 1.66 ± 0.08 (p < 0.0001) mM/l
- Serum insulin ([1]; HFD-ND): 0.2570 ± 0.01 (p < 0.0001) μg/l
- Serum leptin ([1]; HFD-ND): 26.54 ± 1.60 (p < 0.0001) ng/ml
- Serum resistin ([1]; HFD-ND): 1.19 ± 0.06 (p < 0.0001) ng/ml
- Blood glucose ([2]; mean): 161.83 mg/dL
- Serum IL-6 ([2]; mean): 19.99 pg/mL
- Serum LDLc ([2]; mean): 51.26 mg/dL
- Serum TG ([2]; mean): 54.93 mg/dL
- Serum TNF-D ([2]; mean): 11.78 pg/mL
- Serum adiponectin ([2]; mean): 13803 ng/mL
- Serum cholesterol ([2]; mean): 81.36 mg/dL
- Serum free fatty acids ([2]; mean): 0.89 mM/L
- Serum insulin ([2]; mean): 0.116 µg/L
- Serum leptin ([2]; mean): 15.43 ng/mL
- Serum resistin ([2]; mean): 0.98 ng/mL
- Body weight ([2]; mean (SD on next line)): 21.50 g
- Tumor growth [3]: restricted tumor growth
- Differentiation of 3T3-L1 adipocytes [4]: inhibited
- Survival of tumor-bearing mice [5]: did not influence
- Tumor progression (tumor volume and weight) ([5]; DTIC 80 mg/kg i.p. 5 days, orlistat 10 mg/kg oral alternate days): unaltered
